# Where two headings read alike, the source gives them in different places.
# Tests used:
# bovine hemoglobin = assay: Reducing agents in bovine hemoglobin solution (deoxy Hb, Met Hb, free iron); assay type: biochemical; conditions: for Free Iron / Met Hb / deoxy Hb: 30 mM agent, 5% bovine hemoglobin, pH 7.4, 4° C., inert atmosphere, 20 hours
# Description: 30 mM of each reducing agent tested, including cysteine, glutathione, N-acetyl cysteine, N-acetyl methionine and sodium ascorbate, was added to 5% bovine hemoglobin solution containing 0.lM Na phosphate, 0.1M NaHCO3 and 0.1M NaCl, with pH=7.4 and at 4° C., under an inert atmosphere. 20 hours later, the deoxyhemoglobin (deoxy Hb), Met Hb and free iron concentrations were determined. Met Hb and deoxy Hb concentrations were measured using an OSM3 Hemoximeter (Radiometer) and free iron was determined by the ferrozine assay method (Carter, 1971, Analyt. Biochem. 40:450-458).
# [1] = Oxygen binding: P50 (partial pressure of oxygen at 50% saturation) and Hill coefficient
# Description: Hemoglobin constitutes about 90% of the total protein in red blood cells. 100 ml of whole blood is capable of absorbing approximately 21 ml of gaseous oxygen due to the binding ability of hemoglobin. Equally important to the binding of oxygen, hemoglobin is also efficient in releasing the bound oxygen to tissues. The ability of hemoglobin to bind and release oxygen is often quantitatively expressed as the P50, the partial pressure of oxygen which results in fifty percent saturation of hemoglobin.
# The resulting modified hemoglobin may then be tested to determine its P50 value so as to confirm that a clinically useful P50 has been achieved. Methods of P50 measurement include standard methods of analysis, such as, for example, methods utilizing the Hemox-Analyzer (TCS Medical Products Co., Huntingdon Valley, Pa.).
# Following reduction, the hemoglobin may be reacted with an activated polyalkylene oxide under conditions which maintain the structural integrity of the oxygen binding site. In preferred embodiments of the invention, such conditions consist of a high anion concentration; in a specific embodiment this anion is chloride ion. In preferred embodiments, the chloride ion concentration is at least about 1.0M. […] According to the invention, the activated polyalkylene oxide may have one or more than one functional groups. The degree of modification for each preparation referred to in Table I is approximately 20 percent. This percent modification corresponds to about […] PEG molecules per each molecule of hemoglobin. The percent modification may be calculated according to the number of lysines modified by PEG and is based on a total of 48 surface lysines in bovine hemoglobin. The number may be determined by trinitrobenzene sulfonic acid (TNBS) assay (Habeef et al., 1966, Analyt. Biochem. 14:328-336).
# (§1) The polyalkylene oxide modified hemoglobin may then be chemically characterized using methods known in the art. For example, the oxygen dissociation curve may be determined using standard techniques (for example, Imai et al., 1970, Biochim. Biophys. Acta 200: 189-196) allowing calculation of the P50 value. Additional parameters which would be desirable to measure include the methemoglobin content, the viscosity, the osmolality, the pH, and the Hill constant; the effects of changes in pH on the oxygen saturation curve may be determined as described in Bartels (1971, Blood oxygen dissociation curves: Mammals. in "Respiration and Circulation", Altman and Dittmer, Eds., Federation of American Societies for Experimental Biology, Bethesda).
# Purification was carried out using a hollow-fiber ultrafiltration device with M.W. cutoff of 50 kD that is commercially available from American Fluid, Richboro, Pa. The advantage of this device relative to conventional tangential flat ultrafiltration membranes is its easy handling of viscous protein solutions such as the 6% PEG-Hb solution. Following purification, the P50 of the PEG-Hb was determined by a Hemox-Analyzer (TCS Medical Products Co., Huntington Valley, Pa.).
# [2] = Viscosity and colloid osmotic pressure of PEG-Hb solutions; assay type: physicochemical; conditions: for colloid osmotic pressure: 6 percent (g/dl) product
# Text: as §1
# [3] = Half-life and intravascular Met-Hb in rats after 70 percent exchange transfusion; assay type: in vivo; conditions: rat, in vivo
# Text: Blood circulating time of polyalkylene oxide-modified Hb may, for example, and not by way of limitation, be evaluated by monitoring the concentration of hemoglobin in the plasma fraction (at 540 nm) of blood samples sequentially collected following exchange transfusion with modified Hb. Hemoglobin disappearance may be plotted as a function of time.
# [4] = Methemoglobin content of PEG-Hb preparations; assay type: physicochemical; conditions: in preparation
# Text: as §1
# rats = assay: Blood pressure, heart rate and breathing in rats after 70 percent exchange transfusion; assay type: in vivo; conditions: 70% exchange transfusion
# Text: Acute toxicity studies may be performed in any suitable experimental animal. Preferably, a range of exposures may be tested; for example, by evaluating animals that have received a 50 or 70 percent exchange transfusion as compared to animals that have received a 100 percent exchange transfusion. Vital signs and visual observations should be recorded, and the animals may be sacrificed after a period of time estimated to correspond to one half-life of the hemoglobin formulation being tested. Histological evaluation using standard techniques may be used to determine the presence or absence of toxic effects on tissues including lung, kidney, liver, or brain.
# The results of in vivo studies, in which rats were given a 70 percent exchange transfusion of hemoglobin prepared according to Examples I-V or control (native bovine hemoglobin) are shown in Table V (bracketed numbers are values obtained in rats that were not transfused). Note that the breathing rate decreased slightly, and the blood pressure increased by at most about 30-35 percent relative to control, showing a good physiologic response to the exchange transfusion.
# [5] = degree of modification 3%, 0.15M [Cl-]
# [6] = degree of modification 6%, 0.15M [Cl-]
# [7] = 30 mM sodium bisulfite, 59% deoxyHb before PEGylation
# [8] = 50 mM sodium bisulfite, 63% deoxyHb before PEGylation
# [9] = 100 mM sodium bisulfite, 75% deoxyHb before PEGylation
# [10] = 175 mM sodium bisulfite, 95-100% deoxyHb before PEGylation
# [11] = 0% deoxyHb before PEGylation, SC-PEG
# [12] = 20% deoxyHb before PEGylation, SC-PEG
# [13] = 35% deoxyHb before PEGylation, SC-PEG
# [14] = 50% deoxyHb before PEGylation, SC-PEG
# [15] = 70% deoxyHb before PEGylation, SC-PEG
# [16] = 90% deoxyHb before PEGylation, SC-PEG
# [17] = 95% deoxyHb before PEGylation, SC-PEG
# [18] = 0% deoxyHb before PEGylation, BSC-PEG
# [19] = 25% deoxyHb before PEGylation, BSC-PEG
# [20] = 45% deoxyHb before PEGylation, BSC-PEG
# [21] = 61% deoxyHb before PEGylation, BSC-PEG
# [22] = 76% deoxyHb before PEGylation, BSC-PEG
# [23] = 93% deoxyHb before PEGylation, BSC-PEG
# [24] = [Cl-] of reaction solution 0.1 M, degree of modification approximately 20 percent
# [25] = [Cl-] of reaction solution 0.5 M, degree of modification approximately 20 percent
# [26] = [Cl-] of reaction solution 1.0 M, degree of modification approximately 20 percent
# [27] = [Cl-] of reaction solution 1.5 M, degree of modification approximately 20 percent
# [28] = [Cl-] of reaction solution 2.0 M, degree of modification approximately 20 percent
# [29] = native, unmodified (footnote of Table VII)
compound,measurement,setting,value
"N[C@@H](CS)C(=O)O [Cysteine, cysteine]",Free Iron,bovine hemoglobin,4.26 µg/dL
same,Met Hb,bovine hemoglobin,0.8%
same,deoxy Hb,bovine hemoglobin,97.6%
same,"deoxyhemoglobin level, ranking among agents",bovine hemoglobin; in words,highest levels of deoxyhemoglobin
same,"methemoglobin and free iron level, ranking among agents",bovine hemoglobin; in words,lowest levels of methemoglobin and free iron
"N[C@@H](CCC(=O)N[C@@H](CS)C(=O)NCC(=O)O)C(=O)O [GSH, reduced glutathione]",Met Hb,bovine hemoglobin,11.9%
same,deoxy Hb,bovine hemoglobin,9.7%
CC(=O)N[C@@H](CS)C(=O)O [N-acetyl cysteine],Met Hb,bovine hemoglobin,18.8%
same,deoxy Hb,bovine hemoglobin,0%
CSCC[C@H](NC(C)=O)C(=O)O [N-acetyl methionine],Met Hb,bovine hemoglobin,19.6%
same,deoxy Hb,bovine hemoglobin,0%
"O=C1O[C@H]([C@@H](O)CO)C([O-])=C1O.[Na+] [Na-Ascorbate, sodium ascorbate]",Free Iron,bovine hemoglobin,233.7 µg/dL
same,Met Hb,bovine hemoglobin,4.1%
same,deoxy Hb,bovine hemoglobin,96.7%
BSC-PEG(4600)-bHb: bovine hemoglobin modified with bifunctional BSC-PEG of molecular weight 4600,P50,[1]; [5],34 mm Hg
same,P50,"[1]; degree of modification 4.5%, 0.15M [Cl-]",34 mm Hg
same,P50,[1]; [6],32.5 mm Hg
BSC-PEG(6000)-bHb: bovine hemoglobin modified with bifunctional BSC-PEG of molecular weight 6000,P50,[1]; [5],38.5 mm Hg
same,P50,[1]; [6],36.5 mm Hg
same,P50,"[1]; degree of modification 7.3%, 0.15M [Cl-]",36.5 mm Hg
Bifunctional PEG-modified bHb: bovine hemoglobin reacted with BSC-PEG,P50 vs monofunctional PEG-modified bHb,[1]; in words,higher P50 than monofunctional PEG-modified bHb
"Example I: bovine hemoglobin reduced with cysteine, modified with SC-PEG (MW 5000) at a molar ratio of 20:1",Osmotic Press.,[2],24 mmHg
same,Viscosity,[2],3.6 cp
same,colloid osmolality,[2],24 mm Hg
same,Formation of Met-bHb in rat intravasculature,[3],substantially lower than that of unmodified hemoglobin
same,Met-Hb at Half-life,[3],29.3%
same,Half-life,[3]; iv,8.9 h
same,Hill coeff.,[1]; Examples I-V and control,2.58
same,MetHb,[4],6%
same,Breathing,rats,117 min⁻¹
same,Heart Rate,rats,392 min⁻¹
same,Mean Arterial Press.,rats,102 mmHg
same,Endotoxin,Endotoxin (LAL test),< .1 EU
same,endotoxins,Endotoxin (LAL test),free of endotoxins
"Example IX: bovine hemoglobin deoxygenated with sodium bisulfite, then modified using monofunctionally activated SC-PEG",Hill Coefficient,[1]; [7],1.8
same,P50 of PEG-Hb,[1]; [7],18.5 mmHg
same,Hill Coefficient,[1]; [8],1.8
same,P50 of PEG-Hb,[1]; [8],19.0 mmHg
same,Hill Coefficient,[1]; [9],2.2
same,P50 of PEG-Hb,[1]; [9],28.0 mmHg
same,Hill Coefficient,[1]; [10],2.0
same,P50 of PEG-Hb,[1]; [10],24.0 mmHg
"Example VIII: bovine hemoglobin partially deoxygenated by gas exchange, modified with SC-PEG (M.W. 5141), SC-PEG:Hb 12:1",colloid osmotic pressure,[2],24 mmHg
same,Viscosity,"[2]; 6 percent (g/dl), 37° C.",4.2 cp
same,Hill coeff.,[1]; [11],1.7
same,P50,[1]; [11],18 mmHg
same,Hill coeff.,[1]; [12],1.7
same,P50,[1]; [12],18 mmHg
same,Hill coeff.,[1]; [13],1.7
same,P50,[1]; [13],18 mmHg
same,Hill coeff.,[1]; [14],2.0
same,P50,[1]; [14],24 mmHg
same,Hill coeff.,[1]; [15],2.2
same,P50,[1]; [15],28 mmHg
same,Hill coeff.,[1]; [16],2.0
same,P50,[1]; [16],22 mmHg
same,Hill coeff.,[1]; [17],2.0
same,P50,[1]; [17],22 mmHg
"Example X: bovine hemoglobin deoxygenated by gas exchange, modified with BSC-PEG (M.W. 5000), BSC-PEG:Hb 2.5:1, crosslinked",colloid osmotic pressure,[2],20 mmHg
same,Viscosity,"[2]; 6 percent (g/dl), 37° C.",4.5 cp
same,Hill coeff.,[1]; [18],1.8
same,P50,[1]; [18],20 mmHg
same,Hill coeff.,[1]; [19],1.9
same,P50,[1]; [19],22 mmHg
same,Hill coeff.,[1]; [20],2.0
same,P50,[1]; [20],25 mmHg
same,Hill coeff.,[1]; [21],2.3
same,P50,[1]; [21],30 mmHg
same,Hill coeff.,[1]; [22],2.3
same,P50,[1]; [22],31 mmHg
same,Hill coeff.,[1]; [23],2.0
same,P50,[1]; [23],26 mmHg
SC-PEG(2000)-bHb: bovine hemoglobin modified with monofunctional SC-PEG of molecular weight 2000,P50,[1]; [24],24 mm Hg
same,P50,[1]; [25],30 mm Hg
same,P50,[1]; [26],32 mm Hg
same,P50,[1]; [27],31 mm Hg
same,P50,[1]; [28],32 mm Hg
SC-PEG(4000)-bHb: bovine hemoglobin modified with monofunctional SC-PEG of molecular weight 4000,P50,[1]; [24],24 mm Hg
same,P50,[1]; [25],28 mm Hg
same,P50,[1]; [26],30 mm Hg
same,P50,[1]; [27],30 mm Hg
same,P50,[1]; [28],30 mm Hg
SC-PEG(5000)-bHb: bovine hemoglobin modified with monofunctional SC-PEG of molecular weight 5000,P50,[1]; [24],22 mm Hg
same,P50,[1]; [25],24 mm Hg
same,P50,[1]; [26],29 mm Hg
same,P50,[1]; [27],30 mm Hg
same,P50,[1]; [28],30 mm Hg
same,P50,"[1]; reacted in 0.1M [Cl-], degree of modification 5%",24 mm Hg
same,P50,"[1]; reacted in 0.1M [Cl-], degree of modification 10%",22 mm Hg
same,P50,"[1]; reacted in 0.1M [Cl-], degree of modification 20%",22 mm Hg
same,P50,"[1]; reacted in 0.5M [Cl-], degree of modification 5%",28 mm Hg
same,P50,"[1]; reacted in 0.5M [Cl-], degree of modification 10%",24 mm Hg
same,P50,"[1]; reacted in 0.5M [Cl-], degree of modification 20%",24 mm Hg
same,P50,"[1]; reacted in 1.0M [Cl-], degree of modification 5%",30 mm Hg
same,P50,"[1]; reacted in 1.0M [Cl-], degree of modification 10%",29 mm Hg
same,P50,"[1]; reacted in 1.0M [Cl-], degree of modification 20%",29 mm Hg
"native stromafree bHb: native stromafree bHb from Biopure, Boston, MA [reference compound]",Hill Coefficient,[1]; [29],2.3
same,P50,[1]; [29],28 mmHg
